Experimental data: patent US20040039053A1, “Use of(-) (3-halomethylphenoxy) (4-halophenyl) acetic acid derivatives for treatment of insulin resistance, type 2 diabetes, hyperlipidemia and hyperuricemia” (priority 2000, published 2004)
Entries after “also recorded” stand apart in the source; their conditions may differ.

Tests used:
diabetic ob/ob mice [1] = assay: Glucose and insulin lowering on daily oral administration for 5 days in ob/ob mice (Example 9)
Procedure: Animals were housed (4-5 mice/cage) under standard laboratory conditions at 22° C. and 50% relative humidity, and were maintained on a diet of Purina rodent chow and water ad libitum. Prior to treatment, blood was collected from the tail vein of each animal. Mice that had non-fasting plasma glucose levels between 300 and 520 mg/dL were used. Each treatment group consisted of 10 mice that were distributed so that the mean glucose levels were equivalent in each group as the start of the study. […] The gavage volume was 10 ml/kg. Blood samples were taken at 3, 6, 27, 30 and 120 hour after the first dose and analyzed for plasma glucose and insulin. The animals were fasted overnight (14 hours) before the 120 hours sampling. Plasma glucose concentrations were determined calorimetrically using glucose oxidase method (Sigma Chemical Co, St. Louis, Mo., USA). Plasma insulin concentrations were determined by using the Rat Insulin RIA Kit from Linco Research Inc. (St. Charles, Mo., USA). Significance difference between groups (comparing drug-treated to vehicle-treated) was evaluated using Student unpaired t-test.

ZDF rats = assay: Plasma glucose in ZDF rats, (−) versus (+) halofenate (Example 13); format: in vivo; conditions: 50 mg/kg oral once a day for 3 days
Procedure: Male 8-9 week old ZDF rats were purchased from Genetic Models, Inc. (Indianapolis, Ind.). […] Rats that had 4-hour fasting plasma glucose levels between 200 and 500 mg/dL were used. […] The gavage volume was 5 ml/kg. Blood samples were taken at 5 hours post dose on day 2 and 3.

[2] = test system: Zucker Diabetic Fatty rats; assay: Lipid lowering activity in Zucker Diabetic Fatty rats (Example 11); format: in vivo; conditions: ZDF rats; for lowering of plasma triglyceride vs control at 7 days, in words: 37.5 mg/kg/day; for difference in plasma cholesterol between control and treated groups, in words: experiment I, 7 and 13 days
Procedure: Male Zucker diabetic fatty (ZDF) rats were obtained from GMI Laboratories (Indianapolis, Ind.) at 9 weeks of age. Vehicle or enantiomers of halofenate administered by oral gavage on a daily basis starting at 74 days of age. Initial blood samples were obtained for analysis one day before treatment and at the indicated times in the treatment protocol. Blood was analyzed for plasma triglyceride and cholesterol by standard techniques.

diabetic ob/ob mice [3] = assay: Time course of glucose-lowering after a single oral dose in ob/ob mice (Example 8); format: in vivo; conditions: single oral dose 250 mg/kg; for onset and duration of glucose-lowering action, in words: 250 mg/kg
Zucker fatty rats [4] = assay: Oral glucose challenge in Zucker fatty rats (Example 10); format: in vivo; conditions: racemate 100 mg/kg, enantiomers 50 and 100 mg/kg
Procedure: (§1) Prior to treatment, rats were assigned to 6 groups based on body weight. Each treatment group consisted of 8 rats. […] The gavage volume was 10 ml/kg. All rats received an oral glucose challenge (1.9 g/kg) 5.5 hours after the treatment and 4 hours after withdrawal of the food. Blood samples were taken at 0, 15, 30, 60, 90, 120, and 180 minutes following the glucose challenge for plasma glucose measurement. […] On day 5, rats received the intravenous insulin (0.75 U/kg) 5.5 hours after the last dose and 4 hours after withdrawal of the food. Blood samples were taken at 3, 6, 9, 12, 15 and 18 minutes following the insulin injection for plasma glucose measurement.

C57BL/6J db/db mice = assay: Prevention of diabetes and alleviation of hypertriglyceridemia in db/db mice (Example 15); format: in vivo; conditions: 150 mg/kg/day in chow, 9 weeks; for plasma triglyceride levels with age, in words: 150 mg/kg/day
Procedure: Blood samples were taken at 8-10 AM once a week for 9 weeks under non-fasting condition. Food intake and body weight were measured every 1-3 days. Plasma glucose and triglyceride concentrations were determined calorimetrically using kits from Sigma Chemical Co (No. 315 and No. 339, St. Louis, Mo., USA). Plasma insulin levels were measured using RIA assay kit purchased from Linco Research (St. Charles, Mo.).

[5] = test system: oxonic acid induced hyperuricemic rats; assay: Plasma uric acid in oxonic acid induced hyperuricemic rats (Example 17); format: in vivo; conditions: oxonic acid hyperuricemic SD rats, oral 50 mg/kg for 3 days, 100 mg/kg on day 4, 6 hours post gavage
Description: Male SD rats, weight 275-300 g were purchased from Charles River. […] To establish a hyperuricemic state, animals were put on a diet containing 2.5% (w/w) of oxonic acid (Sigma Chemical Co, St. Louis, Mo., USA) throughout the experiment. Oxonic acid elevates plasma uric acid by inhibiting uricase. Rats were screened for plasma uric acid levels 3 days after they were placed on the diet, and those that had extreme plasma uric acid levels were excluded. Rats were assigned to one of three groups and the mean uric acid levels were equivalent in each group. […] Oxonic acid was delivered in a liquid formulation containing 0.9% (w/v) methylcellulose. The gavage and injection volumes were 5 ml/kg. Blood samples were taken at 6 hours post oral gavage on day 4. Plasma uric acid levels were determined colorimetrically using the Infinity Uric Acid Reagent (Sigma Chemical Co, St. Louis, Mo., USA).

Zucker fatty rats [6] = assay: Short insulin tolerance test in Zucker fatty rats (Example 10); format: in vivo; conditions: 50 mg/kg/day for 5 days
Procedure: as §1

CYP2A6 = target: T1, CYP2A6 (Homo sapiens, UniProt P11509); assay: Cytochrome P450 isoform inhibition in human hepatic microsomes, coumarin (Example 18); conditions: positive control 250 μM; VC 32.0 ± 1.4
T1 sequence (P11509 1-494): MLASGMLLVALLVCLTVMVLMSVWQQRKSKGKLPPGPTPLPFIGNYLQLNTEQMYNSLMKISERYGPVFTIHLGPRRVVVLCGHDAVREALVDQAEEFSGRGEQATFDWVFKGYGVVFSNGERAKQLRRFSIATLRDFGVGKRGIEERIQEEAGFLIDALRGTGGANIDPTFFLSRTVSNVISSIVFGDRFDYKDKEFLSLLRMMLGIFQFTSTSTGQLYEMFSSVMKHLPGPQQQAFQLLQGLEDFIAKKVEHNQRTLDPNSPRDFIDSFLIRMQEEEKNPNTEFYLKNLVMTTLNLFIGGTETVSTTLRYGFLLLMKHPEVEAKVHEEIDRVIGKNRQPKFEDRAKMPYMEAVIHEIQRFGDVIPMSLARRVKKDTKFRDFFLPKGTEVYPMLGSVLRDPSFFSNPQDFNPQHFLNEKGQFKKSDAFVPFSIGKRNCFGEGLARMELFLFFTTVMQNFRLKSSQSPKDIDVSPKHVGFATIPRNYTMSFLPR

[7] = 250 mg/kg/day oral, listed as (−) enantiomer, 250 mg/kg/day

## CC(=O)NCCOC(=O)C(Oc1cccc(C(F)(F)F)c1)c1ccc(Cl)cc1 (single isomer, unassigned; (-)) [(−) halofenate, (−) 2-acetamidoethyl 4-chlorophenyl-(3-trifluoromethylphenoxy)-acetate]
Diabetic ob/ob mice [1]; 125 mg/kg/day oral, listed as (−) enantiomer, 125 mg/kg/day
  overnight fasting plasma insulin after 5 days, in words: Significantly lower plasma insulins
Diabetic ob/ob mice [1]; 250 mg/kg/day oral, 250 mg/kg/day
  time points with significant plasma glucose reduction vs control: also active at 3 hours
Diabetic ob/ob mice [1]; [7]
  overnight fasting plasma insulin after 5 days, in words: Significantly lower plasma insulins
  time points with reduced plasma insulin vs control: greatest extent of reduced plasma insulin was noted at 27 and 30 hours
ZDF rats
  plasma glucose compared to vehicle-treated animals, in words: significantly reduced plasma glucose concentrations
[2]; 12.5 mg/kg/day (Low dose)
  days of treatment with significant plasma cholesterol decrease vs control: 7 days
[2]; 37.5 mg/kg/day (High dose)
  plasma triglyceride levels, in words: lowest triglyceride levels of all the treatment groups
[2]; 37.5 mg/kg/day (High dose), listed as (−) enantiomer of halofenate
  lowering of plasma triglyceride vs control at 7 days, in words: greater magnitude
[2]; 37.5 mg/kg/day (High dose), listed as (−) enantiomer
  lowering of plasma triglyceride vs control at 7 days, in words: significant lowering of plasma triglyceride
[2]; 13 days, racemate 50 mg/kg/day, enantiomers 25 mg/kg/day
  plasma cholesterol course during treatment, in words: plasma cholesterol declined with treatment
[2]; 14 days, 37.5 mg/kg/day (High dose)
  extent of plasma cholesterol lowering, in words: greatest extent of cholesterol lowering
[2]; enantiomers 25 mg/kg/day
  difference in plasma cholesterol between control and treated groups, in words: significant decrease in plasma cholesterol
[2]; enantiomers 25 mg/kg/day, listed as (−) enantiomer
  difference in plasma cholesterol between control and treated groups, in words: most active of the species tested
Diabetic ob/ob mice [3]
  glucose lowering compared with the (+) enantiomer at 3 hour and 24 hour time points: more effective and significantly different (p<0.05) from the (+) enantiomer
  onset and duration of glucose-lowering action, in words: more rapid onset and sustained longer
Diabetic ob/ob mice [3]; listed as (−) enantiomer
  onset and duration of glucose-lowering action, in words: most rapid onset of action and the longest duration of action
Zucker fatty rats [4]; single oral dose 5.5 hours before challenge
  plasma glucose after oral glucose challenge, in words: most effective in lowering the glucose; also recorded: greatest degree of glucose-lowering of all the treated animals
Zucker fatty rats [4]; single oral dose
  incremental glucose area under the curve (AUC) vs control, in words: significant reductions in the glucose area; also recorded: Significant changes (p<0.05)
C57BL/6J db/db mice
  increase of plasma glucose levels with age, in words: prevented or significantly delayed
  plasma insulin concentration with age, in words: maintained the plasma insulin concentration
  plasma triglyceride levels with age, in words: alleviated hyperlipidemia
C57BL/6J db/db mice; listed as (−) Halofenate
  plasma triglyceride levels with age, in words: alleviated the increase of plasma triglyceride concentration
[5]
  plasma uric acid levels vs vehicle, in words: significantly reduced plasma uric acid levels
Zucker fatty rats [6]
  insulin sensitivity (slope of decline in glucose after i.v. insulin), in words: improved significantly; also recorded: significantly more insulin sensitive

## N[C@@H]1C[C@H]1c1ccccc1 (racemic) [TRAN, tranylcypromine]
CYP2A6
  Coumarin 7-HC Production: 0.00 ± 0.00 pmol/mg protein/min
